Where a name gives a salt, the structure may show the parent alone.
Molecular target: T1, full length SGK1 (Homo sapiens, UniProt O00141)
T1 construct: 125 μM full length SGK1 (Life Technologies Part #PR7358A); purchased Life Technologies PR7358A
T1 sequence (O00141 1-431): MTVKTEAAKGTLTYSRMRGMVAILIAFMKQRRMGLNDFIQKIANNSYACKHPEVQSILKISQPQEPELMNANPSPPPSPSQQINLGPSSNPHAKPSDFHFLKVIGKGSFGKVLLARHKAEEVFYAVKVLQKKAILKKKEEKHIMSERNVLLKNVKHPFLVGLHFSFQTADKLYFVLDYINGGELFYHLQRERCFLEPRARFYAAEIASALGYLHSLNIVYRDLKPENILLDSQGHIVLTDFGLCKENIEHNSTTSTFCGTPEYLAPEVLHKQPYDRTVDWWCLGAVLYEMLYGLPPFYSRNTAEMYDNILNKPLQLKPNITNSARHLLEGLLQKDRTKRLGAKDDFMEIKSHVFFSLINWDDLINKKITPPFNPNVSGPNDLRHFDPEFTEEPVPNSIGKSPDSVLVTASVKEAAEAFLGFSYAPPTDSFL
Test: SGK1 inhibition Assay A (Caliper LabChip electrophoretic separation of fluorescent peptide substrate and phosphorylated product)
Assay type: biochemical
Conditions: Assay A; 20 μM ATP, 40 min incubation; read-out: SGK1 IC50

Row | IC50 [nM] | SMILES
1 | 335 | CS(=O)(=O)c1ccc(-c2cc(N3CCC[C@@H](C(=O)Nc4ccccc4)C3)c3c(N)ncnn23)cc1 [Example 105, (R)-1-(4-amino-7-(4-(methylsulfonyl)phenyl)pyrrolo [2,1-f][1,2,4]triazin-5-yl)-N-phenylpiperidine-3-carboxamide]
2 | 285 | Nc1ncnn2c(-c3ccnc(F)c3)cc(N3CCC[C@@H](NC(=O)Cc4ccc(Cl)s4)C3)c12 [Example 151, (R)-N-(1-(4-amino-7-(2-fluoropyridin-4-yl)pyrrolo[2,1-f][1,2,4]triazin-5-yl)piperidin-3-yl)-2-(5-chlorothiophen-2-yl)acetamide]
3 | 13 | Cc1nc(OCCN(C)C)c(C(=O)N[C@@H]2CCCN(c3cc(-c4ccnc(C#N)c4)n4ncnc(N)c34)C2)s1 [Example 356, (R)-N-(1-(4-amino-7-(2-cyanopyridin-4-yl)pyrrolo[2,1-f][1,2,4]triazin-5-yl)piperidin-3-yl)-4-(2-(dimethylamino)ethoxy)-2-methylthiazole-5-carboxamide]
4 | 5 | CN(C)CCOc1cc(Cl)sc1C(=O)N[C@@H]1CCCN(c2cc(C3=CCN(C(=O)C4CC4)C3)n3ncnc(N)c23)C1 [Example 177, (R)-N-(1-(4-amino-7-(1-(cyclopropanecarbonyl)-2,5-dihydro-1H-pyrrol-3-yl)pyrrolo[2,1-f][1,2,4]triazin-5-yl)piperidin-3-yl)-5-chloro-3-(2-(dimethylamino)ethoxy) thiophene-2-carboxamide, 2 TFA]
5 | 760 | CC(=O)N1CC=C(c2cc(N3CCC[C@@H](NC(=O)C4CC5(C4)CC(F)(F)C5)C3)c3c(N)ncnn23)C1 [Example 705, (R)-N-(1-(7-(1-acetyl-2,5-dihydro-1H-pyrrol-3-yl)-4-aminopyrrolo[2,1-f][1,2,4]triazin-5-yl)piperidin-3-yl)-6,6-difluorospiro[3.3]heptane-2-carboxamide]
6 | 64 | CC(=O)N1CC=C(c2cc(N3CCC[C@@H](NC(=O)c4cccc(N(C)C)c4)C3)c3c(N)ncnn23)C1 [Example 465, (R)-N-(1-(7-(1-acetyl-2,5-dihydro-1H-pyrrol-3-yl)-4-aminopyrrolo[2,1-f][1,2,4]triazin-5-yl)piperidin-3-yl)-3-(dimethylamino)benzamide]
7 | 7 | CC(=O)N1CC=C(c2cc(N3CCC[C@@H](NC(=O)c4sc(Cl)cc4OCCN4CCC(C)(O)CC4)C3)c3c(N)ncnn23)C1 [Example 299, (R)-N-(1-(7-(1-acetyl-2,5-dihydro-1H-pyrrol-3-yl)-4-aminopyrrolo[2,1-f][1,2,4]triazin-5-yl)piperidin-3-yl)-5-chloro-3-(2-(4-hydroxy-4-methylpiperidin-1-yl)ethoxy)thiophene-2-carboxamide]
8 | 4 | CN(C)CCOc1cc(C(F)F)sc1C(=O)N[C@@H]1CCCN(c2cc(-c3ccc(C#N)c(F)c3)n3ncnc(N)c23)C1 [Example 313]
9 | 45 | COc1cncc(C(=O)N[C@@H]2CCCN(c3cc(-c4ccc(S(C)(=O)=O)cc4)n4ncnc(N)c34)C2)c1 [Example 102, (R)-N-(1-(4-amino-7-(4-(methylsulfonyl)phenyl)pyrrolo[2,1-f][1,2,4]triazin-5-yl)piperidin-3-yl)-5-methoxynicotinamide, TFA]
10 | 9 | CC(=O)N1CC=C(c2cc(N3CCC[C@@H](NC(=O)c4sc5ccccc5c4OC4CCNCC4)C3)c3c(N)ncnn23)C1 [Example 655, (R)—N-(1-(7-(1-acetyl-2,5-dihydro-1H-pyrrol-3-yl)-4-aminopyrrolo[2,1-f][1,2,4]triazin-5-yl)piperidin-3-yl)-3-(piperidin-4-yloxy)benzo[b]thiophene-2-carboxamide]
11 | 0.9 | N#Cc1ccc(-c2cc(N3CCC[C@@H](NC(=O)c4sc(Cl)cc4OCC4CCNCC4)C3)c3c(N)ncnn23)cn1 [Example 641, (R)-N-(1-(4-amino-7-(6~cyanopyridin-3-y1)pyrrolo[2,1-f][1,2,4]triazin-5-y1)piperidin-3-yl)-5-chloro-3-(piperidin-4-ylmethoxy)thiophene-2-carboxamide]

— US20260250290A1 (BRISTOL-MYERS SQUIBB COMPANY, priority 2023, published 2026)
